According to patent US7736649B2, “Methods of inhibiting human immunodeficiency virus infection through the administration of synergistic combinations of anti-CCR5 monoclonal antibodies, fusion inhibitors, and CD4-GP120 binding inhibitors” (priority 2000, dated 2010):
Like-named read-outs stand apart in the source and are kept apart here.

Assays:
[1] = tested on: HIV-1JR-FL env-mediated membrane fusion
Description: HIV-1 envelope-mediated fusion between HeLa-EnvJR-FL and PM1 cells was detected using a Resonance Energy Transfer (RET) assay.
HIV-1 inhibition data were analyzed according to the Combination Index method of Chou and Talay. The data are modeled according to the median-effect principle, which can be written f=1/[1+(K/c)^m] (1) where f is the fraction affected/inhibited, c is concentration, K is the concentration of agent required to produce the median effect, and m is an empirical coefficient describing the shape of the dose-response curve. Equation (1) is a generalized form of the equations describing Michaelis-Menton enzyme kinetics, Langmuir adsorption isotherms, and Henderson-Hasselbalch ionization equilibria, for which m=1 in all cases. In the present case, K is equal to the IC50 value. K and m are determined by curve-fitting the dose-response curves.
(§1) After the best-fit parameters for K and m are obtained for the experimental agents and their combination, Equation (1) is rearranged to allow for calculation of c for a given f. The resulting table of values (e.g., Figure X) is used to calculate the Combination Index (CI) using the equation CI=c1m/c1+c2m/c2+c1mc2m/c1c2 (2) where • c1=concentration of compound 1 when used alone • c2=concentration of compound 2 when used alone • C1m=concentration of compound 1 in the mixture • C2m=concentration of compound 2 in the mixture
All concentrations are those required to achieve a given degree of inhibition. Equation (2) is used when the molecules are mutually nonexclusive, i.e., have different sites of action. Since this is the likely scenario for inhibitors of HIV-1 attachment and gp41 fusion intermediates, Equation (2) was used for all Combination Index calculations. Mutually nonexclusive calculations provide a more conservative estimate of the degree of synergy that mutually exclusive calculations, for which the c1mc2m/c1c2 term is dropped. CI<1 indicates synergy, CI=1 indicates purely additive effects, and CI>1 indicates antagonism. In general, CI values are most relevant at the higher levels of inhibition that are required to achieve a measurable clinical benefit.
as §1, with “c2 concentration” for “c2=concentration”, “c1m=concentration” for “C1m=concentration”, “c2m=concentration” for “C2m=concentration”
HIV-1 cell-cell fusion assays Cell-cell fusion mediated by the envelope glycoproteins of HIV-1JR-FL and HIV-1LAI was measured using a fluorescence resonance energy transfer (RET) assay, which measures fusion between HeLa cells expressing HIV-1 envelope glycoproteins and CD4^+ target cells. The T cell lines PM1 and SupT1 were used as target cells in this study. PM1 endogenously express CCR5 and CXCR4. […] The RET signal is directly related to the extent of membrane fusion.
(§2) Quantitative analysis of drug interactions Inhibition data from three independent assays were averaged and analyzed for cooperative effects using the Combination Index (CI) method. In all analyses, PRO 542 and T-20 were assumed to act non-competitively, which leads to a more conservative estimate of synergy. CI values of <0.9 (or >1.1) were taken to represent meaningful synergy (or antagonism). Dose reductions were calculated as the ratio of drug concentrations required for inhibition when the drug is used, alone or in combination.
An HIV-1 cell-cell fusion assay is described in FIG. 18. Such assay is a Resonance Energy Transfer (RET) assay of HIV-1 membrane fusion.

HIV-1JR-FL (R5) = tested on: HIV-1JR-FL (R5)
Description: HIV-1 virus-cell fusion assays NLluc^+env^− viruses were complemented in trans by the envelope glycoproteins (Env) from HIV-1JR-FL (R5) or HIV-1DH123 (R5X4). HeLa-CD4^+CCR5^+ cells were infected with chimeric reporter viruses containing 50-100 ng/ml of p24 in the presence or absence of drugs. Cells were washed and fed fresh drug-containing media at 2 h and drug-free media at 12 h. After 72 h, cell lysates were assayed for luciferase activity.
as §2
An HIV-1 virus-cell fusion assay is described in FIG. 15. In a single-cycle HIV-1 entry assay, Env-Luc+ HIV reporter viruses were prepared as described. The viruses are complemented with gp120/gp41 from an HIV strain of interest and thus are capable of fusing with target cells that express CD4 and fusion coreceptors, resulting in the introduction of the viral genes into the cell. Because the viruses encode the luciferase reporter enzyme rather than HIVenv, infection leads to the production of luciferase rather than new viral particles. The amount of luciferase is measured 72 hours post-infection using standard methods.

[2] = tested on: HIV-1 fusion intermediates; conditions: cited from earlier work
HIV-1 = conditions: cited from earlier work
[3] = cells and inhibitor co-incubated 2 h at 25° C. prior to washing and warming to 37° C., data not shown

enfuvirtide
concentration of the agent contained in the combination at 95% inhibition ([1]; 25:1 CD4-IgG2:T-20 mass ratio combination): 0.044 µg/mL
dose reduction (alone v. in combination) ([1]; 95% inhibition, 25:1 mass ratio): 5 fold
activity in cell-cell preincubation assay, in words ([1]; HeLa-Env and PM1 cells co-incubated 2 h at 25° C., inhibitor added, warmed to 37° C.): fully active
concentration required for inhibition of viral entry by 95% ([1]; agent used alone, or total of 25:1 mass ratio combination): 0.21 µg/mL
IC90 ([1]; alone, or total of 1:10 molar PRO 542:T-20 combination): 22 nM
K (concentration producing the median effect, equal to IC50) ([1]; best-fit median-effect parameter, 4 h incubation, mean of three experiments): 0.017 µg/mL
activity, in words [1, 3]: essentially inactive
fold increase in IC50 [1, 3]: > 250 fold
activity when pre-incubated with PM1 cells prior to washing ([1]; data not shown): Neither drug demonstrated activity
activity in washout assay, in words ([1]; drug pre-incubated with HeLa-Env cells, washed, then PM1 cells added): essentially inactive
IC90 ([1]; read-out: concentration of the agent in the combination at IC90, 1:10 molar combination): 4.9 nM
dose reduction (fold less drug needed) (HIV-1JR-FL (R5); 90-95% inhibition, 1:2 molar): ~20 fold
IC90 (HIV-1JR-FL (R5); read-out: IC90 (concentration required for 90% inhibition), alone, or total of 1:2 molar PRO 542:T-20 combination): 45 nM
IC90 (HIV-1JR-FL (R5); read-out: concentration of the agent in the combination at IC90, 1:2 molar combination): 2.6 nM
inhibition ([2]; added at 75 minutes): < 10%
inhibition ([2]; added within the first 15 minutes of cell mixing): 100%
pK, in words (HIV-1; Phase I/II clinical trials): supports twice daily subcutaneous dosing
tolerability (HIV-1; Phase I/II clinical trials): good tolerability
viral load, in words (HIV-1; Phase I/II clinical trials): clinically significant dose-dependent reductions
reduction of plasma HIV RNA levels (HIV-1; Phase I/II): ≤ 2 logs
reductions in HIV RNA (HIV-1; single agent, Phase I/II trials): 1-2 log10
